Experimental data: paper PMC6687188, “Novel lactate dehydrogenase inhibitors with in vivo efficacy against Cryptosporidium parvum” (PLoS Pathogens, 2019)
Residues, ends and D or L forms follow the SMILES beside them. *: point of attachment. Cbz = O=C(OCc1ccccc1)*; CH2Cl = ClC*

The compounds below were run against recombinant CpLDH protein (Cryptosporidium parvum, UniProt Q9GT92, F198L/K295E/R251K).

SMILES	MEAN CpLDH INHIBITION (%)
CNC(=S)N/N=C/c1ccc([N+](=O)[O-])s1 [NSC169543]	-46.26
COC(=O)C1(C)CCCC2(C)c3cc(OC)ccc3C(=O)C(Br)C12 (centres unmarked) [NSC169600]	-28.27
OCCNCCN1CCN(CCCN2c3ccccc3Sc3ccc(C(F)(F)F)cc32)CC1 [NSC169676]	-69.84
CC(C)C[C@H]1C(=O)N2CCC[C@H]2[C@]2(O)O[C@](NC(=O)[C@@H]3C=C4c5cccc6[nH]c(Br)c(c56)C[C@H]4N(C)C3)(C(C)C)C(=O)N12.CS(=O)(=O)O [NSC169774]	-107.83
C[C@H](CN1CC(=O)NC(=O)C1)N1CC(=O)NC(=O)C1 [NSC169779]	-13.00
COC(=O)[C@@]12OC[C@]34[C@H]([C@@H](O)[C@@H]1O)[C@@]1(C)CC(=O)C(O)=C(C)[C@@H]1C[C@H]3OC(=O)[C@H](OC(=O)C=C(C)C)[C@@H]24 [NSC172924]	-39.50
CC(=O)[O][Pb]([O]C(C)=O)([c]1ccccc1)[c]1ccccc1 [NSC173046]	-141.42
CC(C)CC(NC(=O)OCc1ccccc1)C(=O)NC(Cc1ccccc1)C(=O)CCl (stereo not drawn) [NSC173904] (Cbz-Leu-Phe-CH2Cl; configuration not given here)	-56.33
CC(=O)NC(CC(C)C)C(=O)NC(Cc1ccccc1)C(=O)CCl (stereo not drawn) [NSC173905] (Ac-Leu-Phe-CH2Cl; configuration not given here)	-39.37
CN(Cc1cnc2nc(N)nc(N)c2n1)c1ccc(C(=O)N[C@@H](CCC(=O)O)C(=O)O)c2ccccc12 [NSC174121]	-134.26
[Cl][Hg][c]1ccc2ccccc2c1 [NSC174163]	-16.59
CC(=O)[O][Hg][c]1c(C)c(C)c(C)c(C)c1C [NSC174176]	-60.94
CCCC(=O)[O-].[Na+] [NSC174280]	-5.75
N=N/C(=C\c1c(O)[nH]c2ccccc12)c1ccccc1 [NSC175274]	-25.99
Cc1ccc(C2NC(=O)c3ccccc3N2)s1 (centres unmarked) [NSC175634]	-31.59
O=C1NC(c2cccc3ccccc23)Nc2ccc(Cl)cc21 (centres unmarked) [NSC175636]	-17.73
N[C@H](C(=O)O)[C@H]1ON=C(Cl)[C@H]1O [NSC176324]	-9.23
C(=C/c1nc2ccccc2o1)/c1ccc2c(c1)OCO2 [NSC176655]	-23.23
NC(N)=NCCCS(=O)(=O)Nc1ccc(Nc2c3ccccc3nc3cc([N+](=O)[O-])ccc23)cc1 [NSC177365]	-212.36
COc1ccc(O)c2c(=O)c3c(OC)cc4c(c3oc12)[C@@H]1C=CO[C@@H]1O4 [NSC178249]	-31.06
CCC[CH2][Sn]1([CH2]CCC)[S]CC[N]1S(=O)(=O)c1ccc(C)cc1 [NSC183359]	-29.84
C[C@H]1O[C@@H](c2ccc3c(c2O)C(=O)C2=C(C3=O)[C@@]3(O)C(=O)C[C@](C)(O)C[C@@]3(O)C=C2)C[C@@H](O)[C@@H]1O [NSC184398]	-31.06
C[n+]1cc2cc(O)c(O)cc2c2ccc3cc(O)c(O)cc3c21.Cl.[Cl-].c1ccncc1 [NSC184403]	-44.28

SMILES	MEAN CpLDH INHIBITION (%)
NC(=S)N/N=C/c1ccc(OC(=O)COc2ccccc2Cl)cn1 [NSC185056]	-5.23
Oc1ccc(/C=N/NC(=S)Nc2cccnc2)nc1 [NSC185065]	-8.17
Cc1cc(C)c(NC(=O)/C=C/c2ccccc2)c(C)c1 [NSC191384]	-34.30
Cc1ccc(NC(=O)/C=C/c2ccccc2)c(C)c1 [NSC191389]	-64.07
Cc1c(Cl)cccc1NC(=O)/C=C/c1ccccc1 [NSC191392]	-18.93
Cc1cccc(Cl)c1NC(=O)/C=C/c1ccccc1 [NSC191393]	-10.83
C[CH2][Ge]1([CH2]C)[CH2]CC2(CCN(CCCN(C)C)C2)C[CH2]1 [NSC192965]	-81.94
CC[C@@]1(O)C[C@H](O)c2c(O)c3c(c(O)c2[C@H]1C(=O)OC)C(=O)c1cccc(O)c1C3=O [NSC196524]	-30.88
O=C1OC(c2ccco2)=N/C1=C\c1ccc(Cl)c(Cl)c1 [NSC202000]	-23.71
COc1cc2c(c3oc4cccc(O)c4c(=O)c13)[C@@H]1C=CO[C@@H]1O2 [NSC204985]	-20.51
CCOC(=O)C(C)NC(=O)N(C)C12CC3CC(CC(C3)C1)C2 (centres unmarked) [NSC208913]	-30.10
CCOC(=O)CNC(=O)NC12CC3CC(CC(C3)C1)C2 [NSC208914]	-37.53
COc1ccc(C2C=C(c3ccc4c(c3)OCO4)Oc3c2c(=O)oc2ccccc32)cc1OC (centres unmarked) [NSC211489]	-11.02
CC(C)c1oc(=O)cc2c1[C@@H](O)[C@H]1OC(=O)[C@@]3(C)[C@@H](O)[C@H]4O[C@H]4[C@@]2(C)[C@@H]13 [NSC211500]	-13.24
C[n+]1ccc(Nc2ccc(NC(=O)c3ccc(Nc4cc[n+](C)c5ccc([N+](=O)[O-])cc45)cc3[N+](=O)[O-])cc2)cc1.Cl [NSC218439]	-11.45
Cc1[nH]c(=O)[nH]c(=O)c1/C=C/C(=O)NC(CO)CC(C)C (centres unmarked) [NSC224117]	-0.81
CSCC(CO)NC(=O)/C=C/c1c(C)[nH]c(=O)[nH]c1=O (centres unmarked) [NSC233872]	-35.08
O=C(O)c1ccc(Nc2c3ccccc3nc3ccccc23)cc1.[Na+] [NSC235082]	-28.09
CO[C@H]1/C=C/O[C@@]2(C)Oc3c(C)c(O)c4c(c3C2=O)C(=O)C=C(NC(=O)/C(C)=C\C=C\[C@H](C)[C@H](OC=O)[C@@H](C)[C@@H](O)[C@@H](C)[C@H](OC(C)=O)[C@@H]1C)C4=O [NSC239375]	-42.34
Cc1cc(N(CC(C)Br)CC(C)Br)ccc1N=Nc1ccccc1C(=O)O (centres unmarked) [NSC240419]	-69.26
CCCC[S+]([O-])CC(CO)NC(=O)/C=C/c1c(C)[nH]c(=O)[nH]c1=O (centres unmarked) [NSC241509]	-30.83
COc1cc(O)c(Cc2ccccc2O)c(O)c1C(=O)CCc1ccccc1 [NSC241906]	-0.38
CC[C@@]1(O)C[C@H](O[C@H]2C[C@H](N(C)C)[C@H](O[C@H]3C[C@@H]4O[C@H]5CC(=O)[C@H](C)O[C@H]5O[C@@H]4[C@H](C)O3)[C@H](C)O2)c2c(cc3c(c2O)C(=O)c2c(O)ccc(O)c2C3=O)[C@H]1C(=O)OC [NSC243023]	-140.35

SMILES	MEAN CpLDH INHIBITION (%)
CCS(=O)(=O)Nc1ccc(Nc2c3ccccc3nc3ccccc23)c(OC)c1.CS(=O)(=O)O [NSC243928]	-32.64
CC(=O)OC[C@H]1O[C@@H](NC(=O)N(CCCl)N=O)[C@H](OC(C)=O)[C@@H](OC(C)=O)[C@@H]1OC(C)=O [NSC245432]	-45.30
CO[C@H]1/C=C\C=C(/C)C(=O)NC2=CC(=O)C(N)=C(C[C@@H](C)C[C@H](OC)[C@H](O)[C@@H](C)/C=C(\C)[C@@H]1OC(N)=O)C2=O [NSC255109]	-205.22
CC(C)N.CC(C)N.[Cl-].[Cl-].[OH-].[OH-].[Pt] [NSC256927]	-46.96
COc1cccc2c1C(=O)c1c(O)c3c(c(O)c1C2=O)C[C@@](O)(C(C)=O)C[C@@H]3O[C@@H]1C[C@@H](N(C)C)[C@@H](O)[C@@H](C)O1 [NSC258812]	-2.78
COc1ccc(/C=C2\N=C(c3ccccc3)OC2=O)c(OCc2ccccc2)c1 [NSC262665]	-17.00
C[n+]1ccc(-c2cc[n+](C)cc2)cc1.[Cl-].[Cl-] [NSC263500]	-58.44
NC1=NCN([C@@H]2O[C@H](CO)[C@@H](O)[C@H]2O)C(=O)N1 [NSC264880]	-2.01
CC[C@@]1(O)C[C@H](O[C@H]2C[C@H](N(C)C)[C@H](O[C@H]3C[C@H](O)[C@H](O[C@H]4C[C@H](O)[C@H](O)[C@H](C)O4)[C@H](C)O3)[C@H](C)O2)c2c(cc3c(c2O)C(=O)c2c(O)ccc(O)c2C3=O)[C@H]1C(=O)OC [NSC265211]	-47.33
COC1C(C)OC(OC2CC(C)(O)Cc3cc4c(c(O)c32)C(=O)c2c(O)cc3c(c2C4=O)OC2OC3(C)C(O)C(N(C)C)C2O)C(OC)C1(C)OC (centres unmarked) [NSC265450]	-83.48
[Cl][Pt+2][Cl].[NH-]C1CCCCC1[NH-] (centres unmarked) [NSC265459]	-11.78
CCCCCCCCCCSCC(CO)NC(=O)/C=C/c1c(C)[nH]c(=O)[nH]c1=O (centres unmarked) [NSC265473]	-39.94
O=C1N[C@@H]2C(=C[C@H](O)[C@@H](O)[C@H]2O)c2cc3c(c(O)c21)OCO3 [NSC266535]	-18.25
CC(=O)O[C@@H]1C[C@H]2O[C@@H]3C=C(C)CC[C@]3(C)[C@]1(C)[C@]21CO1 [NSC267033]	-8.12
COc1ccc(S(=O)(=O)N/N=C/C(=O)O)cc1 [NSC267213]	-67.55
CC[C@@]1(O)C[C@H](O[C@H]2C[C@H](N(C)C)[C@H](O)[C@H](C)O2)c2c(cc3c(c2O)C(=O)c2c(O)ccc(O)c2C3=O)[C@H]1C(=O)OC [NSC267229]	-179.02
CCNC(=O)OCc1c(COC(=O)NCC)c(-c2ccc(Cl)c(Cl)c2)n2c1CCC2 [NSC267700]	-49.53
C=C(C)C(=O)OC1CCC2(C)C(CCC3C2CCC2(C)C(c4ccc(=O)oc4)CC4OC432)C1 (centres unmarked) [NSC267712]	-57.63
COc1cccc2c1C(=O)c1c(O)c3c(c(O)c1C2=O)C[C@@](O)(C(C)=O)C[C@@H]3OC1CC(N(Cc2ccccc2)Cc2ccccc2)C(O)C(C)O1.Cl (some centres unmarked) [NSC268242]	-40.28
CC(C)CCCCCCCCCCCCC(=O)NCC(=O)NC1C(C)OC(Nc2ncnc3nc[nH]c23)C(O)C1O (centres unmarked) [NSC268251]	-8.04
CC1=C[C@H]2O[C@@H]3[C@H](O)[C@@H](O)[C@](C)([C@@]2(CO)CC1)[C@]31CO1 [NSC269142]	-41.10
COC(C(=O)C(O)C(C)O)C1Cc2cc3cc(OC4CC(OC5CC(O)C(O)C(C)O5)C(O)C(C)O4)c(C)c(O)c3c(O)c2C(=O)C1OC1CC(OC2CC(OC3CC(O)C(OC)C(C)O3)C(O)C(C)O2)C(O)C(C)O1 (centres unmarked) [NSC269146]	-38.98
